Assay results: the supplement of paper PMC12420376

Experiments:
[1] = system: KURAMOCHI; test: drug sensitivity score (DSS2) on cancer cell count; higher = more sensitive; extreme values may be limits of the assay; settings: 72 h
Summary of the method: (§1)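 Ovarian cancer cells were cultured either alone or directly mixed 1:1 with lung or skin fibroblasts and plated onto 384-well plates acoustically pre-spotted with 528 approved and investigational compounds at 5 concentrations for 72 h of treatment. After fixation, cells were immunostained for CK8/18 with Hoechst and imaged at 10× across 4 fields to count cancer cells. Responses were fitted with 4-parameter logistic curves, and from these fits a drug sensitivity score was derived in Breeze, with screen quality assessed by Z'.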

[2] = system: OVCAR8; test: as above; settings: 72 h
Summary of the method: as §1

[3] = co-cultured fibroblast: BJHTERT
[4] = co-cultured fibroblast: none (monoculture)

CC[C@]1(O)C[C@H]2CN(CCc3c([nH]c4ccccc34)[C@@](C(=O)OC)(c3cc4c(cc3OC)N(C=O)[C@H]3[C@@](O)(C(=O)OC)[C@H](OC(C)=O)[C@]5(CC)C=CCN6CC[C@]43[C@@H]65)C2)C1 [Vincristine]
drug sensitivity score [1, 3]: 7.5 DSS
drug sensitivity score ([1]; co-cultured fibroblast: WI38): 5 DSS
drug sensitivity score [1, 4]: 23.4 DSS
drug sensitivity score [2, 3]: 11.5 DSS
drug sensitivity score ([2]; co-cultured fibroblast: WI38): 9.3 DSS
drug sensitivity score [2, 4]: 11.9 DSS

CN1CCC(COc2cnc(-c3cccc(Cn4nc(-c5cccc(C#N)c5)ccc4=O)c3)nc2)CC1 [Tepotinib]
drug sensitivity score [1, 3]: 0.2 DSS
drug sensitivity score ([1]; co-cultured fibroblast: WI38): 0 DSS
drug sensitivity score [1, 4]: 3 DSS
drug sensitivity score [2, 3]: 0 DSS
drug sensitivity score ([2]; co-cultured fibroblast: WI38): 0 DSS
drug sensitivity score [2, 4]: 1.8 DSS

CC(C)NC[C@@H](C(=O)N1CCN(c2ncnc3c2[C@H](C)C[C@H]3O)CC1)c1ccc(Cl)cc1 [Ipatasertib]
drug sensitivity score [1, 3]: 1.5 DSS
drug sensitivity score ([1]; co-cultured fibroblast: WI38): 0.5 DSS
drug sensitivity score [1, 4]: 0 DSS
drug sensitivity score [2, 3]: 1.9 DSS
drug sensitivity score ([2]; co-cultured fibroblast: WI38): 0 DSS
drug sensitivity score [2, 4]: 1.9 DSS

COc1cc([C@@H]2c3cc4c(cc3[C@@H](O[C@@H]3O[C@@H]5CO[C@@H](C)O[C@H]5[C@H](O)[C@H]3O)[C@H]3COC(=O)[C@H]23)OCO4)cc(OC)c1O [Etoposide]
drug sensitivity score [1, 3]: 11.7 DSS
drug sensitivity score ([1]; co-cultured fibroblast: WI38): 13.8 DSS
drug sensitivity score [1, 4]: 16.1 DSS
drug sensitivity score [2, 3]: 11.8 DSS
drug sensitivity score ([2]; co-cultured fibroblast: WI38): 13.1 DSS
drug sensitivity score [2, 4]: 13.9 DSS

C[C@]1(c2nc3c(C(N)=O)cccc3[nH]2)CCCN1 [Veliparib]
drug sensitivity score [1, 3]: 0.4 DSS
drug sensitivity score ([1]; co-cultured fibroblast: WI38): 0 DSS
drug sensitivity score [1, 4]: 0 DSS
drug sensitivity score [2, 3]: 5 DSS
drug sensitivity score ([2]; co-cultured fibroblast: WI38): 3.1 DSS
drug sensitivity score [2, 4]: 0.5 DSS

COc1cc2c(Oc3ccc4[nH]c(C)cc4c3F)ncnc2cc1OCCCN1CCCC1 [Cediranib]
drug sensitivity score [1, 3]: 0 DSS
drug sensitivity score ([1]; co-cultured fibroblast: WI38): 0 DSS
drug sensitivity score [1, 4]: 0 DSS
drug sensitivity score [2, 3]: 0 DSS
drug sensitivity score ([2]; co-cultured fibroblast: WI38): 0 DSS
drug sensitivity score [2, 4]: 0 DSS

COc1cc([C@@H]2c3cc4c(cc3[C@@H](O[C@@H]3O[C@@H]5CO[C@@H](c6cccs6)O[C@H]5[C@H](O)[C@H]3O)[C@H]3COC(=O)[C@H]23)OCO4)cc(OC)c1O [Teniposide]
drug sensitivity score [1, 3]: 0 DSS
drug sensitivity score ([1]; co-cultured fibroblast: WI38): 0 DSS
drug sensitivity score [1, 4]: 0 DSS
drug sensitivity score [2, 3]: 0 DSS
drug sensitivity score ([2]; co-cultured fibroblast: WI38): 0 DSS
drug sensitivity score [2, 4]: 0.4 DSS

NC(=O)Nc1cc(-c2cccc(F)c2)sc1C(=O)N[C@H]1CCCNC1 [AZD7762]
drug sensitivity score [1, 3]: 8.7 DSS
drug sensitivity score ([1]; co-cultured fibroblast: WI38): 6.6 DSS
drug sensitivity score [1, 4]: 22.4 DSS
drug sensitivity score [2, 3]: 7.3 DSS
drug sensitivity score ([2]; co-cultured fibroblast: WI38): 9.2 DSS
drug sensitivity score [2, 4]: 4.5 DSS

C=C(c1ccc(C(=O)O)cc1)c1cc2c(cc1C)C(C)(C)CCC2(C)C [Bexarotene]
drug sensitivity score [1, 3]: 0.4 DSS
drug sensitivity score ([1]; co-cultured fibroblast: WI38): 0 DSS
drug sensitivity score [1, 4]: 15.5 DSS
drug sensitivity score [2, 3]: 0 DSS
drug sensitivity score ([2]; co-cultured fibroblast: WI38): 0 DSS
drug sensitivity score [2, 4]: 0 DSS

O=C(NOC[C@H](O)CO)c1ccc(F)c(F)c1Nc1ccc(I)cc1F
drug sensitivity score [1, 3]: 8.8 DSS
drug sensitivity score ([1]; co-cultured fibroblast: WI38): 0.8 DSS
drug sensitivity score [1, 4]: 3.3 DSS
drug sensitivity score [2, 3]: 7.7 DSS
drug sensitivity score ([2]; co-cultured fibroblast: WI38): 0 DSS
drug sensitivity score [2, 4]: 10.6 DSS

C[C@@H]1COCCN1c1cc(C2([S@](C)(=N)=O)CC2)nc(-c2cc[nH]c3nccc2-3)n1 [AZD6738]
drug sensitivity score [1, 3]: 10.4 DSS
drug sensitivity score ([1]; co-cultured fibroblast: WI38): 8.6 DSS
drug sensitivity score [1, 4]: 10.9 DSS
drug sensitivity score [2, 3]: 11.1 DSS
drug sensitivity score ([2]; co-cultured fibroblast: WI38): 4.4 DSS
drug sensitivity score [2, 4]: 8.1 DSS

CCCCCCCCCCCCCCCCCCOP(=O)([O-])OC1CC[N+](C)(C)CC1 [Perifosine]
drug sensitivity score [1, 3]: 0 DSS
drug sensitivity score ([1]; co-cultured fibroblast: WI38): 0 DSS
drug sensitivity score [1, 4]: 0 DSS
drug sensitivity score [2, 3]: 0 DSS
drug sensitivity score ([2]; co-cultured fibroblast: WI38): 0 DSS
drug sensitivity score [2, 4]: 0 DSS

CO[C@H]1C[C@@H]2CC[C@@H](C)[C@@](O)(O2)C(=O)C(=O)N2CCCC[C@H]2C(=O)O[C@H]([C@H](C)C[C@@H]2CC[C@@H](O)[C@H](OC)C2)CC(=O)[C@H](C)/C=C(\C)[C@@H](O)[C@@H](OC)C(=O)[C@H](C)C[C@H](C)/C=C/C=C/C=C/1C [Sirolimus]
drug sensitivity score [1, 3]: 4.2 DSS
drug sensitivity score ([1]; co-cultured fibroblast: WI38): 5 DSS
drug sensitivity score [1, 4]: 7.1 DSS
drug sensitivity score [2, 3]: 4.5 DSS
drug sensitivity score ([2]; co-cultured fibroblast: WI38): 0 DSS
drug sensitivity score [2, 4]: 9.2 DSS

S=c1[nH]cnc2nc[nH]c12 [Mercaptopurine]
drug sensitivity score [1, 3]: 0.1 DSS
drug sensitivity score ([1]; co-cultured fibroblast: WI38): 0.3 DSS
drug sensitivity score [1, 4]: 0 DSS
drug sensitivity score [2, 3]: 0 DSS
drug sensitivity score ([2]; co-cultured fibroblast: WI38): 0 DSS
drug sensitivity score [2, 4]: 5.4 DSS

COC(=O)C[C@](O)(CCCC(C)(C)O)C(=O)O[C@@H]1C(OC)=C[C@]23CCCN2CCc2cc4c(cc2[C@H]13)OCO4 [Omacetaxine]
drug sensitivity score [1, 3]: 23.8 DSS
drug sensitivity score ([1]; co-cultured fibroblast: WI38): 24.5 DSS
drug sensitivity score [1, 4]: 30.6 DSS
drug sensitivity score [2, 3]: 29.3 DSS
drug sensitivity score ([2]; co-cultured fibroblast: WI38): 30.1 DSS
drug sensitivity score [2, 4]: 29.8 DSS

O=C(/C=C/c1cccnc1)NCCCCC1CCN(C(=O)c2ccccc2)CC1 [Daporinad]
drug sensitivity score [1, 3]: 16 DSS
drug sensitivity score ([1]; co-cultured fibroblast: WI38): 12.6 DSS
drug sensitivity score [1, 4]: 20.4 DSS
drug sensitivity score [2, 3]: 22.5 DSS
drug sensitivity score ([2]; co-cultured fibroblast: WI38): 22.2 DSS
drug sensitivity score [2, 4]: 27.1 DSS

CCN(CC)CCOc1ccc(C(=C(Cl)c2ccccc2)c2ccccc2)cc1 [Clomifene]
drug sensitivity score [1, 3]: 3.7 DSS
drug sensitivity score ([1]; co-cultured fibroblast: WI38): 5.6 DSS
drug sensitivity score [1, 4]: 7.9 DSS
drug sensitivity score [2, 3]: 4.3 DSS
drug sensitivity score ([2]; co-cultured fibroblast: WI38): 10.1 DSS
drug sensitivity score [2, 4]: 1.9 DSS

NCCNc1ccc(NCCN)c2c1C(=O)c1ccncc1C2=O [Pixantrone]
drug sensitivity score [1, 3]: 0 DSS
drug sensitivity score ([1]; co-cultured fibroblast: WI38): 0.1 DSS
drug sensitivity score [1, 4]: 9.4 DSS
drug sensitivity score [2, 3]: 1.7 DSS
drug sensitivity score ([2]; co-cultured fibroblast: WI38): 0 DSS
drug sensitivity score [2, 4]: 0 DSS

O=C(O)c1ccc(CN2CCC(CN[C@@H]3C[C@H]3c3ccccc3)CC2)cc1
drug sensitivity score [1, 3]: 0.9 DSS
drug sensitivity score ([1]; co-cultured fibroblast: WI38): 0 DSS
drug sensitivity score [1, 4]: 0 DSS
drug sensitivity score [2, 3]: 0 DSS
drug sensitivity score ([2]; co-cultured fibroblast: WI38): 0 DSS
drug sensitivity score [2, 4]: 2.2 DSS

Cc1cn(-c2cc(NC(=O)c3ccc(C)c(Nc4nccc(-c5cnccn5)n4)c3)cc(C(F)(F)F)c2)cn1 [Radotinib]
drug sensitivity score [1, 3]: 0 DSS
drug sensitivity score ([1]; co-cultured fibroblast: WI38): 0 DSS
drug sensitivity score [1, 4]: 0 DSS
drug sensitivity score [2, 3]: 0 DSS
drug sensitivity score ([2]; co-cultured fibroblast: WI38): 6.2 DSS
drug sensitivity score [2, 4]: 1.2 DSS
